Results as given in article PMC7313537 (PLoS ONE, 2020).
Like-named read-outs stand apart in the source and are kept apart here.

How the values were obtained:
BTK = BTK (Homo sapiens, UniProt Q06187); assay: Enzyme selectivity panel; format: biochemical; details: 1 mM ATP
Protocol: (§3) The kinase assays were carried out at room temperature in HEPES 50 mM, pH 7.0, NaN3 0.02%, BSA 0.01%, Orthovanadate 0.1 mM, DTT 1 mM, MgCl2 10 mM in a final volume of 10 µL. Test compounds were transferred to the plate wells by ECHO liquid handler (Labcyte, San Jose, CA) with 0.5% dimethyl sulfoxide (DMSO) in the final assay. Peptide/kinase mixtures were diluted in the appropriate enzymatic buffer and 5µL of the mixture was added to a 384-well small volume black plate. Reactions were initiated by the addition of 5 µL ATP in reaction buffer, the final reaction mixture consisted of 500 nM peptide substrate, 1 mM ATP, and appropriate amount of specific kinase. […] The plates were then sealed and centrifuged at 1800 rpm for 2 minutes. […] Half maximal inhibitory concentration (IC50) determination was performed by fitting the curve of percent control activity versus the log of the compound concentration using the GraphPad Prism 6.0 software.

[1] = Plasma protein binding (equilibrium dialysis); format: in vitro ADME; details: read-out: PPB (% free)
Protocol: The final DMSO content in all cases was <0.1%. Each condition was incubated in duplicate. For protein binding determination, the Multi-Equilibrium Dialyzer System™ and diachema membranes from Harvard Apparatus (Holliston, MA) were utilized. Equilibrium dialysis was carried out in Teflon cells separated by a dialysis membrane with a molecular weight cutoff of 10,000 Daltons. […] The cells were rotated at a speed of 12 rpm in a 37°C water bath for 2 hours. Following the incubation period, buffer and serum/plasma samples were drained separately into empty preweighed glass test tubes. The tubes were reweighed, and the exact volume of sample recovered from each side of the dialysis cell was calculated using the mass. A 75-μL aliquot of each sample (buffer or serum/plasma) was added to a 96-well plate containing a protein precipitation solution of 100% methanol and 0.2 μM dextrorphan as the internal standard; 75 μL of blank buffer or plasma/serum was added to the plate to ensure identical composition across all samples. Prior to analysis, samples prepared in the 96-well plate were vigorously vortexed for approximately 5 minutes and centrifuged for 10 minutes at ~1700 × g to remove denatured proteins and particulate matter. The supernatant was transferred and analyzed using LC-MS/MS.

[2] = Tolerability in xenograft studies; format: in vivo
EPHB4 = molecular target: T1, EPHB4 (Homo sapiens, UniProt P54760); assay: Enzyme selectivity panel; format: biochemical; details: 1 mM ATP
T1 construct: purchased In-house HTRF panel (56 kinases) and PerkinElmer (161-kinase panel)
Protocol: as §3

PLK3 = PLK3 (Homo sapiens, UniProt Q9H4B4); assay: Enzyme selectivity panel; format: biochemical; details: 1 mM ATP
Chain of PLK3 (Q9H4B4 whole entry, species assumed): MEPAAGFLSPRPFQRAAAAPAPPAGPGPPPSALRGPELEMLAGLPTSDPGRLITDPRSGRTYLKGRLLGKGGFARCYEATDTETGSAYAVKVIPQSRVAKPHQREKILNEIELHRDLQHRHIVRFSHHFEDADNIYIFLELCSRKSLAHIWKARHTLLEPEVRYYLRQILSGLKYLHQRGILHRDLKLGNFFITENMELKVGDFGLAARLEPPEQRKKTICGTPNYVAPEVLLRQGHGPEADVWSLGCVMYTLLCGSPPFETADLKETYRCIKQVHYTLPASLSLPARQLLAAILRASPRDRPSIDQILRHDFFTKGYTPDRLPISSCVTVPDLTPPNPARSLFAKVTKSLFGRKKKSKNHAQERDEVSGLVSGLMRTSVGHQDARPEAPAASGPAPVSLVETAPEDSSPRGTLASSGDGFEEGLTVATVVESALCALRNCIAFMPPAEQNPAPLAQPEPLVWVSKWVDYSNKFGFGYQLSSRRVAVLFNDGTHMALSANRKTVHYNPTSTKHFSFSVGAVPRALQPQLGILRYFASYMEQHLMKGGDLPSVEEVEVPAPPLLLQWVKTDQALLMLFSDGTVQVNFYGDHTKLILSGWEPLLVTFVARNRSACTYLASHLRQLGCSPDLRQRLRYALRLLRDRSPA
Protocol: as §3

CLK3 = CLK3 (Homo sapiens, UniProt P49761); assay: Enzyme selectivity panel; format: biochemical; details: 1 mM ATP
Chain of CLK3 (P49761 whole entry, species assumed, the tested form may be a part): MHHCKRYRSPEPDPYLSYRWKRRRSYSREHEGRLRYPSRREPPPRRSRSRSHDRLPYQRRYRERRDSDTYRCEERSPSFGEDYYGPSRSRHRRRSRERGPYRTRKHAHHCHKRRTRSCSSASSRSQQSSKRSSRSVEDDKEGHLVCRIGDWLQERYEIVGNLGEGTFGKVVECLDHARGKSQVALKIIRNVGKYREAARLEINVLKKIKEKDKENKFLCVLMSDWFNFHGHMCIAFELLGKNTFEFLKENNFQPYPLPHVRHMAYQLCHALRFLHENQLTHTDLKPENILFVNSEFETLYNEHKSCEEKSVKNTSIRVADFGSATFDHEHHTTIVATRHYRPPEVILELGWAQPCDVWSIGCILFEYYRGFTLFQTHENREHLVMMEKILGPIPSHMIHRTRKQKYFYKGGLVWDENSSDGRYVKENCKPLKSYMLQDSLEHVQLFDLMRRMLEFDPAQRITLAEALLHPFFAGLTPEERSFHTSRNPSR
Protocol: as §3

[3] = test system: myeloid/lymphoid neoplasm expressing CEP110-FGFR1; design: method as in PMID 29767670; details: single patient, CEP110-FGFR1 fusion ref 40; cited from earlier work
PAK4 = PAK4 (Homo sapiens, UniProt O96013); assay: Enzyme selectivity panel; format: biochemical; details: 1 mM ATP
Chain of PAK4 (O96013 whole entry, species assumed): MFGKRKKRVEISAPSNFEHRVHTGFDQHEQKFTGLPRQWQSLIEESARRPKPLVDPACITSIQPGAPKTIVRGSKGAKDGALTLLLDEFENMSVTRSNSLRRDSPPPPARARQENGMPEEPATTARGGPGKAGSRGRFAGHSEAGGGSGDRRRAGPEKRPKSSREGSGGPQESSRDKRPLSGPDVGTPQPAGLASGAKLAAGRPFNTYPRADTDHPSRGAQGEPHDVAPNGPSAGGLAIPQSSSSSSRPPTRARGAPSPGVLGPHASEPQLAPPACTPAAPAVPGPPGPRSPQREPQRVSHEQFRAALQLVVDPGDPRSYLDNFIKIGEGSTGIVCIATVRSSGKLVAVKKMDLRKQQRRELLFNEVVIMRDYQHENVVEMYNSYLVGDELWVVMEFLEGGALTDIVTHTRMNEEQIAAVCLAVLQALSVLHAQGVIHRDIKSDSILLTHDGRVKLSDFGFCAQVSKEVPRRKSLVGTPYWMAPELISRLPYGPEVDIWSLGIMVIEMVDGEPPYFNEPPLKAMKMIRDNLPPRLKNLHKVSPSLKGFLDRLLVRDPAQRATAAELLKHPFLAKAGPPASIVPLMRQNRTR
Protocol: as §3

[4] = test system: AN3CA (endometrial cancer); assay: Cell viability assay (CellTiter-Glo); format: cell-based; details: Homo sapiens, AN3-CA; FGFR2 N310R/N549K mutations; 72 hours; read-out: Mean GI50 ± S.D.
H1581 (lung cancer) = assay: Cell viability assay (CellTiter-Glo); format: cell-based; details: Homo sapiens, NCI-H1581; FGFR1 amplification; 72 hours; read-out: Mean GI50 ± S.D.
CYP2B6 = molecular target: T2, CYP2B6 (Homo sapiens, UniProt P20813); assay: CYP inhibition; format: in vitro ADME; details: human liver microsomes
T2 construct: from tissue; host or cells: human liver microsomes
Protocol: (§1) In addition, the known selective inhibitors of CYP1A2 (α-naphthoflavone), CYP2B6 (ticlopidine), CYP2C8 (quercetin), CYP2C9 (sulfaphenazole), CYP2C19 (tranylcypromine), CYP2D6 (quinidine), and CYP3A4 (ketoconazole) were included as positive controls. […] Samples were vortexed and centrifuged, and the resulting supernatants were analyzed using LC-MS/MS.

CYP2C8 = molecular target: T3, CYP2C8 (Homo sapiens, UniProt P10632); assay: CYP inhibition; format: in vitro ADME; details: human liver microsomes
T3 construct: from tissue; host or cells: human liver microsomes
Protocol: as §1

CYP3A4 = molecular target: T4, CYP3A4 (Homo sapiens, UniProt P08684); assay: CYP inhibition; format: in vitro ADME; details: human liver microsomes
T4 construct: from tissue; host or cells: human liver microsomes
Protocol: as §1

CYP2C9 = molecular target: T5, CYP2C9 (Homo sapiens, UniProt P11712); assay: CYP inhibition; format: in vitro ADME; details: human liver microsomes
T5 construct: from tissue; host or cells: human liver microsomes
T5 sequence (P11712 whole entry): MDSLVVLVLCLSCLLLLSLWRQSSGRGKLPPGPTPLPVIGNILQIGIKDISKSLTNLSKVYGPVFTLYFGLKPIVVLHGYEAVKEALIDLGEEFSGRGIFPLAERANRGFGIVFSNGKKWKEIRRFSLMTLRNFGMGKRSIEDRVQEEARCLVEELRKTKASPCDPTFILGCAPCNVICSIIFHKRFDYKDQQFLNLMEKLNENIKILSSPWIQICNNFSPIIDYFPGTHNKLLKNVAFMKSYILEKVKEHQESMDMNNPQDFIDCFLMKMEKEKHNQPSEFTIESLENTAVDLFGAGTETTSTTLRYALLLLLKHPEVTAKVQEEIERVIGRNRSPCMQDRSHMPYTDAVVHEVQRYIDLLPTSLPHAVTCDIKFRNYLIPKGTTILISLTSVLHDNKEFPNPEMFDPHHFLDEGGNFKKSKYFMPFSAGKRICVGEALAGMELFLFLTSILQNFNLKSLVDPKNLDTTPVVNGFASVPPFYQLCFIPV
Protocol: as §1

CYP1A2 = molecular target: T6, CYP1A2 (Homo sapiens, UniProt P05177); assay: CYP inhibition; format: in vitro ADME; details: human liver microsomes
T6 construct: from tissue; host or cells: human liver microsomes
Protocol: as §1

CYP2D6 = molecular target: T7, CYP2D6 (Homo sapiens, UniProt P10635); assay: CYP inhibition; format: in vitro ADME; details: human liver microsomes
T7 construct: from tissue; host or cells: human liver microsomes
T7 sequence (P10635 whole entry): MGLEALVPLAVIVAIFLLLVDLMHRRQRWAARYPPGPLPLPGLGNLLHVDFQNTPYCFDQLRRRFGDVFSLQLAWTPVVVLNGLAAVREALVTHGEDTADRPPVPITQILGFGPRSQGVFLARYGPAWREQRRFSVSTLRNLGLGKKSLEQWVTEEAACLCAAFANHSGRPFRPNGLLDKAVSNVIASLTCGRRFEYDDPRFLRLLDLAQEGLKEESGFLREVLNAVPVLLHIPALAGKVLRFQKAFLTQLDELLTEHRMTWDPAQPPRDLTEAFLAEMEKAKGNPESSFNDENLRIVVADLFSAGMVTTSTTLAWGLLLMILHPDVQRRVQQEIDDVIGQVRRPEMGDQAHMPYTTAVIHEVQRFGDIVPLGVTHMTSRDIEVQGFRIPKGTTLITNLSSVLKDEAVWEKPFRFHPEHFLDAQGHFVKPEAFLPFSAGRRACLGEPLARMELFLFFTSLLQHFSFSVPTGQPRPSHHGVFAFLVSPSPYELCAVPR
Protocol: as §1

CYP2C19 = molecular target: T8, CYP2C19 (Homo sapiens, UniProt P33261); assay: CYP inhibition; format: in vitro ADME; details: human liver microsomes
T8 construct: from tissue; host or cells: human liver microsomes
T8 sequence (P33261 whole entry): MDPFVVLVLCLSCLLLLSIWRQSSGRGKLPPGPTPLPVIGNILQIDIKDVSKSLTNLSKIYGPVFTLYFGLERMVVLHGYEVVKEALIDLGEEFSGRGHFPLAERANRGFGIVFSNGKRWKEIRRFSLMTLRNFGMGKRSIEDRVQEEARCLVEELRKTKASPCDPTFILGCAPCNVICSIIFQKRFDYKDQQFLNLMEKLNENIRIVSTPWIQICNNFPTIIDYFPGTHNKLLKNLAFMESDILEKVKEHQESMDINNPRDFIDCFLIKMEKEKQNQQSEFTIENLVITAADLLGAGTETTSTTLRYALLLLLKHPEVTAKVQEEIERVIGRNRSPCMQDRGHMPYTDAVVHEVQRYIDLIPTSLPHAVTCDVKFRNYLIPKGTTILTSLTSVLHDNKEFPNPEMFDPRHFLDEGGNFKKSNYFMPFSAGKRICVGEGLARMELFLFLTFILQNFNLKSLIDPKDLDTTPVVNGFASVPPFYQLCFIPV
Protocol: as §1

LOK = LOK (Homo sapiens, UniProt O94804); assay: Enzyme selectivity panel; format: biochemical; details: 1 mM ATP
Chain of LOK (O94804 whole entry, species assumed): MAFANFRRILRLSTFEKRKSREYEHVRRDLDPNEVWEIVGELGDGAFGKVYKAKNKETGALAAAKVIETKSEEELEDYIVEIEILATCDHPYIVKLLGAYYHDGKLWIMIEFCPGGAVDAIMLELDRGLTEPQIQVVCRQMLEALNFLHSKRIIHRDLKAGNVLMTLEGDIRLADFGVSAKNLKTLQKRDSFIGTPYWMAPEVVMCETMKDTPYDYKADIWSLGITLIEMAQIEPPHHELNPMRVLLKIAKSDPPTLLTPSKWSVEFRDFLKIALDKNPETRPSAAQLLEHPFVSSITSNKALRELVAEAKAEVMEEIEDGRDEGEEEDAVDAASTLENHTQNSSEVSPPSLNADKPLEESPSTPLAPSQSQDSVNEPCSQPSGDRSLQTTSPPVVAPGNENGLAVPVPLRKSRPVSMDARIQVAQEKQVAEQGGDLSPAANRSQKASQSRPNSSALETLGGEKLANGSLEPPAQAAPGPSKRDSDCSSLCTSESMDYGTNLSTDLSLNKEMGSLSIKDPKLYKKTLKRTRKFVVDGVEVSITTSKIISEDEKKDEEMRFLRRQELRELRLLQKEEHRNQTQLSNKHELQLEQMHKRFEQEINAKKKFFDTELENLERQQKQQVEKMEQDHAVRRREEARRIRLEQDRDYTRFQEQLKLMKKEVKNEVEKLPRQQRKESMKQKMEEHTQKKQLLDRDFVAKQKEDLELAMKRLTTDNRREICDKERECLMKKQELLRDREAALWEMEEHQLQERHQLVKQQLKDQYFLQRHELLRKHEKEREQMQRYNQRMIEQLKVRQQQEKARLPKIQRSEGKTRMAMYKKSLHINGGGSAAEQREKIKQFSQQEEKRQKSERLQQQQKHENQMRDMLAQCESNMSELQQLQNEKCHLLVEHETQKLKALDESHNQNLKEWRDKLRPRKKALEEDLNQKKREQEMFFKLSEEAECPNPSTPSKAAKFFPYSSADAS
Protocol: as §3

ZAP70 = ZAP70 (Homo sapiens, UniProt P43403); assay: Enzyme selectivity panel; format: biochemical; details: 1 mM ATP
Chain of ZAP70 (P43403 whole entry, species assumed): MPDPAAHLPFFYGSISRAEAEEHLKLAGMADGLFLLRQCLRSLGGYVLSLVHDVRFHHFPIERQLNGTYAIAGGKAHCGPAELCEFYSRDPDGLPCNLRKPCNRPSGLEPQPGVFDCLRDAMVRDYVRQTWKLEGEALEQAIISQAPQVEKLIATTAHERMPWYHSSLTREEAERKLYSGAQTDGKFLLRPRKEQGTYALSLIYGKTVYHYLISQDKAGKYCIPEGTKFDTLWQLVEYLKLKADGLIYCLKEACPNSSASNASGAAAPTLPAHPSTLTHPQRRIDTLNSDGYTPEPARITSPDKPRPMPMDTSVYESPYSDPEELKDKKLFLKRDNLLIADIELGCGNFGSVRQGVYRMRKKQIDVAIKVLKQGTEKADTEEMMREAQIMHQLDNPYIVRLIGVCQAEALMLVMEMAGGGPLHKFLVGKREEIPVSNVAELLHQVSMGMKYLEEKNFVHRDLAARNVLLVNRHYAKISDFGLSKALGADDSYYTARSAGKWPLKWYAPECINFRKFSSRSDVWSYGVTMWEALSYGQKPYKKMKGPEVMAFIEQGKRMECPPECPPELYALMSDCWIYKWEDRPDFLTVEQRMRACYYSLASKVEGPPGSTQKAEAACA
Protocol: as §3

[5] = test system: primary T cells from normal donors; details: up to 1,500 nM
TRKA = TRKA (Homo sapiens, UniProt P04629); assay: Enzyme selectivity panel; format: biochemical; details: 1 mM ATP
Protocol: as §3

[6] = test system: KG1 (FGFROP2-FGFR1 fusion positive) AML model; assay: KG1 xenograft efficacy; details: 0.3 mg/kg once daily, oral, 14 days; P < 0.05
Protocol: The inoculation was performed subcutaneously on the right flank. The treatment of tumor bearing mice was started 7 days after tumor inoculation.

HEK293 = assay: Cell viability assay (CellTiter-Glo); format: cell-based; details: Homo sapiens, Embyronic kidney, lacking FGFR alterations
Caco-2 cell monolayers = assay: Caco-2 permeability; format: in vitro ADME; details: A–B at 50 μM
Protocol: (§2) The Caco-2 monolayers were incubated at 37°C, with ambient humidity, and CO2 for the duration of the transport assay. […] The apical volume was 0.2 mL and the basolateral volume was 0.6 mL. The incubation period was 120 minutes. At the end of the incubation period, 0.1 mL of sample was removed from the receiver side and an equal volume of acetonitrile was added for protein precipitation. After centrifugation, the supernatants were collected for analysis. Nadolol and metoprolol were included as low and high permeability comparators, respectively. Trans-epithelial electrical resistance was measured to ensure the integrity of the cell monolayers. Caco-2 cell monolayers with trans-epithelial electrical resistance values ≥300 Ω•cm2 were used for transport experiments.

Caco-2 permeability = format: in vitro ADME; details: human, Caco-2; A–B at 50 μM
Protocol: as §2

UMUC3 = assay: Cell viability assay (CellTiter-Glo); format: cell-based; details: Homo sapiens, Bladder, lacking FGFR alterations

Q: With CCN1C(=O)N(c2c(F)c(OC)cc(OC)c2F)Cc2cnc3[nH]c(CN4CCOCC4)cc3c21 [INCB054828, pemigatinib] as the molecule, how does the IC50 (BTK) read?
A: Its IC50 is greater than 10 µM.

Q: What about the fraction unbound at 2 h, 1 μM ([1]; Sprague Dawley, pH 7.4, rat plasma) of the same molecule?
A: The fraction unbound at 2 h, 1 μM was 0.03.

Q: What about the fraction unbound at 2 h, 1 μM ([1]; pH 7.4, human plasma) of the same molecule?
A: The fraction unbound at 2 h, 1 μM was 0.113.

Q: And the overt toxicities ([2]; 0.3–1 mg/kg once daily, longer than 1 month)?
A: Its overt toxicities is “no overt toxicities were observed”.

Q: And the “tolerability (body weight changes, clinical signs)” value ([2]; doses up to and including 1 mg/kg, up to 42 days)?
A: Its value is “well tolerated”.

Q: What about the IC50 (EPHB4) of the same molecule?
A: The IC50 was greater than 10 µM.

Q: And the IC50 (PLK3)?
A: The IC50 was greater than 10 µM.

Q: And the IC50 (CLK3)?
A: Its IC50 is greater than 10 µM.

Q: What about the clinical response [3] of the same molecule?
A: Its clinical response is “complete cytogenetic and hematologic remission”.

Q: What about the IC50 (PAK4) of the same molecule?
A: Its IC50 is greater than 10 µM.

Q: And the GI50 [4]?
A: The GI50 was 0.048 ± 0.028 µM.

Q: And the GI50 (H1581 (lung cancer))?
A: The GI50 was 0.014 ± 0.009 µM.

Q: What about the IC50 (CYP2B6) of the same molecule?
A: The IC50 was greater than 25 µM.

Q: And the IC50 (CYP2C8)?
A: The IC50 was greater than 25 µM.

Q: What about the IC50 (CYP3A4) of the same molecule?
A: The IC50 was greater than 25 µM.

Q: And the IC50 (CYP2C9)?
A: The IC50 was greater than 25 µM.

Q: And the IC50 (CYP1A2)?
A: Its IC50 is greater than 25 µM.

Q: What about the IC50 (CYP2D6) of the same molecule?
A: The IC50 was greater than 25 µM.

Q: What about the IC50 (CYP2C19) of the same molecule?
A: The IC50 was greater than 25 µM.

Q: And the IC50 (LOK)?
A: The IC50 was greater than 10 µM.

Q: What about the IC50 (ZAP70) of the same molecule?
A: The IC50 was greater than 10 µM.

Q: And the “inhibition of the proliferation of primary T cells” value [5]?
A: Its value is “no inhibition”.

Q: What about the IC50 (TRKA) of the same molecule?
A: Its IC50 is greater than 10 µM.

Q: And the “efficacy against subcutaneous xenograft” value [6]?
A: The value was “significant efficacy”.

Q: And the GI50 (HEK293)?
A: The GI50 was greater than 20 µM.

Q: What about the “Caco-2 Papp” value (Caco-2 cell monolayers) of the same molecule?
A: Its value is “moderate to high permeability”.

Q: What about the Papp at 120 min, 50 μM (Caco-2 permeability) of the same molecule?
A: Its Papp at 120 min, 50 μM is 11 ×10⁻⁶ cm/s.

Q: And the GI50 (UMUC3)?
A: The GI50 was greater than 5 µM.
